Measured values reported in the NIST ThermoML archive (doi:10.1021/je4000857).
Values joined by “and” are separate entries in the source; they are usually repeats but may differ in a detail not shown here. Equal values may be shown once. Numbers after ± are expanded uncertainties.

Details: Liquid

SMILES	vapor or sublimation pressure (253.3 K) [kPa]	vapor or sublimation pressure (258.11 K) [kPa]	vapor or sublimation pressure (263.23 K) [kPa]	vapor or sublimation pressure (264.05 K)	vapor or sublimation pressure (268.17 K) [kPa]	vapor or sublimation pressure (271.05 K) [kPa]	vapor or sublimation pressure (278.05 K) [kPa]	vapor or sublimation pressure (282.74 K) [kPa]	vapor or sublimation pressure (292.81 K) [kPa]	vapor or sublimation pressure (303.04 K) [kPa]	vapor or sublimation pressure (308.04 K) [kPa]	vapor or sublimation pressure (312.78 K) [kPa]	vapor or sublimation pressure (322.96 K) [kPa]
FC(F)(F)C(F)(F)C(F)(F)F [octafluoropropane]	194 ± 3	238 ± 3	287 ± 3	298 ± 4 kPa and 297 ± 4 kPa	343 ± 4	383 ± 4	483 ± 5	553 ± 6	743 ± 7	995 ± 10	1124 ± 11	1256 ± 12	1604 ± 16
CC [ethane]	–	–	–	1862 ± 36 kPa	–	2275 ± 43	2700 ± 51	–	–	4600 ± 87	–	–	–
